Starred links: 1 amine or outer side, 2 acyl side, 3 side chain; linkers in the order of their positions; H or OH if unused. Positions of bridges follow the written chain, without caps; N, C: chain ends. Non-standard residues stand in square brackets, D forms with d. Residues, ends and D or L forms follow the SMILES beside them. ξ: configuration not given here. *: point of attachment. Glu(NHSO2Me) = CS(=O)(=O)NC(=O)CC[C@H](N)C(=O)O; NMePhe(3-Cl) = CN[C@@H](Cc1cccc(Cl)c1)C(=O)O; NMeF = CN[C@@H](Cc1ccccc1)C(=O)O; NMeGABA = CN(CCCC(=O)[*:2])[*:1]; ξThr(3R) = C[C@@H](O)C(N)C(=O)O; NMeL = CN[C@@H](CC(C)C)C(=O)O; NMeV = CN[C@H](C(=O)O)C(C)C; NMeAbu = CC[C@H](NC)C(=O)O; NMeA = CN[C@@H](C)C(=O)O; Piperidide = C1CCN(*)CC1; Me2NCH2CH2 = CN(C)CC*; NBuGly = CCCCNCC(=O)O; Isopentyl = CC(C)CC*; NPrGly = CCCNCC(=O)O; ξS = NC(CO)C(=O)O; Sar = CNCC(=O)O; tBu = CC(C)(C)*

Broadly, the Papp A→B is how fast a substance crosses the layer from the apical side. A lower Papp A→B goes with slow passage.

The series in a line: Caco-2 membrane permeability, improved method as used in the following Examples (96-well, 20 to 24 h preincubation). It is filed as in vitro ADME. Particulars: human, Caco-2, Caco-2. The protocol: In the following Examples, membrane permeability was measured in accordance with the improved method established as described above. Specifically, Caco-2 cells were cultured on a 96-well Transwell for three weeks, after which DMEM+FaSSIF (1% DMSO)+compound were added to the apical side and DMEM was added to the basal side, and the cells were preincubated at 5% CO2, 37° C., and 80 rpm for 20 to 24 hours. Following the preincubation, measurement of membrane permeability was initiated by removing the preincubation solution on the apical and basal sides by suction, washing the membrane, and adding FaSSIF/HBSS buffer (1% DMSO) (pH 6.0) containing the compound to the apical side and HBSS buffer (4% BSA) (pH 7.4) to the basal side. Each well was shaken at 5% CO2, 37° C., and 80 rpm, and 180 minutes after the initiation, the sample on the basal side was collected and the permeation amount was measured by LC/MS. The membrane permeability coefficient (Papp) was calculated from the permeation amount. Herein, the terms “Caco-2 (cm/sec)” in the columns in the tables and “Papp (cm/sec)” are used in the same meaning.
(In general: Caco-2 monolayers are a common model of the intestinal barrier.)
`CCCN1CC(=O)N(C)[C@@H](C(C)C)C(=O)N[C@H](C(=O)N2CCCCC2)CC(=O)N(C)[C@@H](C)C(=O)N[C@@H](CC(C)C)C(=O)N(C)[C@@H](CC(C)C)C(=O)N(C)[C@@H](Cc2ccccc2)C(=O)NC(COCCN(C)C)C(=O)N(C)[C@@H](Cc2ccccc2)C(=O)N(C)[C@@H](CC(C)C)C(=O)N[C@@H]([C@@H](C)O)C1=O` (stereo partly drawn) [pd57] ([NMeA]L[NMeL][NMeF][ξS](Me2NCH2CH2)[NMeF][NMeL]T[NPrGly][NMeV]D-Piperidide; lactam N-11) showed a Papp A→B at 180 min of 0.12 ×10⁻⁶ cm/s. On to `CCCCN1CC(=O)N(C)[C@@H](Cc2ccccc2)C(=O)N[C@@H](COCCN(C)C)C(=O)N(C)[C@@H](CC(C)C)C(=O)N[C@@H]([C@@H](C)O)C(=O)N(C)CC(=O)N(C)[C@@H](Cc2ccccc2)C(=O)N(C)[C@@H](CC)C(=O)N[C@@H](COCCC(C)C)C(=O)N(C)[C@@H](CC(C)C)C(=O)N[C@H](C(=O)N2CCCCC2)CC1=O` [pd58] ([NBuGly][NMeF]S(Me2NCH2CH2)[NMeL]T[Sar][NMeF][NMeAbu]S(Isopentyl)[NMeL]D-Piperidide; lactam N-11), for which the Papp A→B at 180 min was determined as 0.021 ×10⁻⁶ cm/s.

For `CCCCN1CC(=O)N(C)[C@@H](CC(C)C)C(=O)N[C@@H](CC(C)C)C(=O)N(C)[C@@H](Cc2ccccc2)C(=O)N(C)[C@@H](C(C)C)C(=O)N[C@H](C(=O)N2CCCCC2)CC(=O)N[C@H](CC(C)C)C(=O)N(C)[C@@H](Cc2cccc(Cl)c2)C(=O)N[C@@H](CCC(=O)NS(C)(=O)=O)C(=O)N(C)[C@@H](CC(C)C)C(=O)NC([C@@H](C)O)C1=O` (stereo partly drawn) [pd59] ([dL][NMePhe(3-Cl)][Glu(NHSO2Me)][NMeL][ξThr(3R)][NBuGly][NMeL]L[NMeF][NMeV]D-Piperidide; lactam N-11), the Papp A→B at 180 min was < 0.0088 ×10⁻⁶ cm/s.

`CCCCN1CC(=O)N(C)[C@@H](CC(C)C)C(=O)N[C@@H](CCC(=O)NS(C)(=O)=O)C(=O)N(C)[C@@H](Cc2cccc(Cl)c2)C(=O)N(C)[C@@H](C(C)C)C(=O)N[C@H](C(=O)N2CCCCC2)CC(=O)N[C@H](CC(C)C)C(=O)N(C)[C@@H](Cc2cccc(Cl)c2)C(=O)N[C@@H](CC(C)C)C(=O)N(C)[C@@H](CC(C)C)C(=O)N[C@@H]([C@@H](C)O)C1=O` [pd60] ([dL][NMePhe(3-Cl)]L[NMeL]T[NBuGly][NMeL][Glu(NHSO2Me)][NMePhe(3-Cl)][NMeV]D-Piperidide; lactam N-11) gave an apparent permeability from apical to basolateral (Papp A→B) at 180 min of 0.01 ×10⁻⁶ cm/s. The figure for `CCCCN1CC(=O)N(C)[C@@H](CC(C)C)C(=O)N[C@@H](CCC(=O)NS(C)(=O)=O)C(=O)N(C)[C@@H](Cc2cccc(Cl)c2)C(=O)N(C)[C@@H](C(C)C)C(=O)N[C@H](C(=O)N2CCCCC2)CC(=O)N[C@H](CC(C)C)C(=O)N(C)[C@@H](Cc2cccc(Cl)c2)C(=O)N[C@@H](CC(C)C)C(=O)N(C)[C@@H](CC)C(=O)N[C@@H]([C@@H](C)O)C1=O` [pd61] ([dL][NMePhe(3-Cl)]L[NMeAbu]T[NBuGly][NMeL][Glu(NHSO2Me)][NMePhe(3-Cl)][NMeV]D-Piperidide; lactam N-11) is < 0.094 ×10⁻⁶ cm/s.

As for `CCCCN1CC(=O)N(C)[C@@H](C(C)C)C(=O)N[C@H](C(=O)N2CCCCC2)CC(=O)N(C)[C@@H](CC(C)C)C(=O)N[C@@H](CCC(=O)NS(C)(=O)=O)C(=O)N(C)[C@@H](CC(C)C)C(=O)N(C)[C@@H](Cc2ccccc2)C(=O)N[C@@H](CC(C)C)C(=O)N(C)[C@@H](Cc2ccccc2)C(=O)N(C)[C@@H](CC(C)C)C(=O)N[C@@H]([C@@H](C)O)C1=O` [pd62] ([NMeL][Glu(NHSO2Me)][NMeL][NMeF]L[NMeF][NMeL]T[NBuGly][NMeV]D-Piperidide; lactam N-11), the Papp A→B at 180 min was < 0.13 ×10⁻⁶ cm/s. The same measure for `CCCCN1CC(=O)N(C)[C@@H](C(C)C)C(=O)N[C@H](C(=O)N2CCCCC2)CC(=O)N(C)[C@@H](CC)C(=O)N[C@@H](CCC(=O)NS(C)(=O)=O)C(=O)N(C)[C@@H](CC(C)C)C(=O)N(C)[C@@H](Cc2cccc(Cl)c2)C(=O)N[C@@H](CC(C)C)C(=O)N(C)[C@@H](Cc2ccccc2)C(=O)N(C)[C@@H](CC(C)C)C(=O)N[C@@H]([C@@H](C)O)C1=O` [pd63] ([NMeAbu][Glu(NHSO2Me)][NMeL][NMePhe(3-Cl)]L[NMeF][NMeL]T[NBuGly][NMeV]D-Piperidide; lactam N-11): < 0.1 ×10⁻⁶ cm/s. The same measure for `CCCCN1CC(=O)N(C)[C@@H](CC(C)C)C(=O)N[C@H](C(=O)N2CCCCC2)CC(=O)N(C)[C@@H](CC(C)C)C(=O)N[C@@H](CC(C)C)C(=O)N(C)[C@@H](CC)C(=O)N(C)[C@@H](Cc2ccccc2)C(=O)N[C@@H](CCC(=O)NS(C)(=O)=O)C(=O)N(C)[C@@H](Cc2cccc(Cl)c2)C(=O)N(C)[C@@H](CC(C)C)C(=O)NC([C@@H](C)O)C1=O` (stereo partly drawn) [pd64] ([NMeL]L[NMeAbu][NMeF][Glu(NHSO2Me)][NMePhe(3-Cl)][NMeL][ξThr(3R)][NBuGly][NMeL]D-Piperidide; lactam N-11): 0.15 ×10⁻⁶ cm/s; for `CCCCN1CC(=O)N(C)[C@@H](Cc2ccccc2)C(=O)N[C@@H](CCC(=O)NS(C)(=O)=O)C(=O)N(C)[C@@H](CC(C)C)C(=O)N[C@@H]([C@@H](C)O)C(=O)N(CCCC)CC(=O)N(C)[C@@H](Cc2ccccc2)C(=O)N(C)[C@@H](CC(C)C)C(=O)N[C@@H](CC(C)C)C(=O)N(C)[C@@H](CC(C)C)C(=O)N[C@H](C(=O)N2CCCCC2)CC1=O` [pd65] ([NBuGly][NMeF][Glu(NHSO2Me)][NMeL]T[NBuGly][NMeF][NMeL]L[NMeL]D-Piperidide; lactam N-11): 0.06 ×10⁻⁶ cm/s; for `CCCCN1CC(=O)N(C)[C@@H](Cc2cccc(Cl)c2)C(=O)N[C@@H](CCC(=O)NS(C)(=O)=O)C(=O)N(C)[C@@H](CC(C)C)C(=O)N[C@@H]([C@@H](C)O)C(=O)N(CCCC)CC(=O)N(C)[C@@H](Cc2ccccc2)C(=O)N(C)[C@@H](CC(C)C)C(=O)N[C@@H](CC(C)C)C(=O)N(C)[C@@H](CC(C)C)C(=O)N[C@H](C(=O)N2CCCCC2)CC1=O` [pd66] ([NBuGly][NMePhe(3-Cl)][Glu(NHSO2Me)][NMeL]T[NBuGly][NMeF][NMeL]L[NMeL]D-Piperidide; lactam N-11): 0.09 ×10⁻⁶ cm/s.

In turn, `CCCCN1CC(=O)N(C)[C@@H](CC(C)C)C(=O)N[C@@H](COC(C)(C)C)C(=O)N(C)[C@@H](Cc2ccccc2)C(=O)N(C)[C@@H](C(C)C)C(=O)N[C@H](C(=O)N2CCCCC2)CC(=O)N[C@H](C(C)C)C(=O)N(C)[C@@H](Cc2ccccc2)C(=O)N[C@@H](CCC(=O)NS(C)(=O)=O)C(=O)N(C)[C@@H](CC(C)C)C(=O)N[C@@H](CC(C)C)C1=O` [pd67] ([dV][NMeF][Glu(NHSO2Me)][NMeL]L[NBuGly][NMeL]S(tBu)[NMeF][NMeV]D-Piperidide; lactam N-11) had a Papp A→B at 180 min of 0.06 ×10⁻⁶ cm/s. In turn, `CC(C)C[C@@H]1NC(=O)[C@H](CC(C)C)N(C)C(=O)CCCN(C)C(=O)C[C@@H](C(=O)N2CCCCC2)NC(=O)[C@H](CC(C)C)N(C)C(=O)[C@H](CC(C)C)N(C)C(=O)[C@H](CC(C)C)NC(=O)[C@H](CC(C)C)N(C)C(=O)[C@H](CCC(=O)NS(C)(=O)=O)NC(=O)[C@H](Cc2ccccc2)N(C)C(=O)[C@H](Cc2ccccc2)N(C)C1=O` [pd68] ([NMeGABA][NMeL]L[NMeF][NMeF][Glu(NHSO2Me)][NMeL]L[NMeL][NMeL]D-Piperidide; lactam N-11) came in with a Papp A→B at 180 min of 0.1 ×10⁻⁶ cm/s. This Papp A→B at 180 min is about 1.7-fold higher than that of the compound before.
